These results are taken from article PMC5515432, “A human tissue-based functional assay platform to evaluate the immune function impact of small molecule inhibitors that target the immune system” (PLoS ONE, 2017).

Values joined by “and” are separate entries in the source; they are usually repeats but may differ in a detail not shown here. Identical values can stand only once. “Also recorded” adds a separate entry of the source. Like-named read-outs stand apart in the source and are kept apart here.

The subject of assay [1] is NK cell mediated killing of K562 cells. The experiment in a line: NK cell killing function (NK Test, PBMC effectors, K562 target cells).
Method: (§3) A commercially available kit was used to asses NK cell killing (NK Test, Glycotope Biotechnology). Human PBMCs (effector cells) resuspended in culture medium were plated in a round bottom, sterile poly propylene 96 well plate (Corning #3359) and incubated with compounds (final DMSO concentration 0.1%) for 1 hour. Membrane labeled GFP positive K562 cells (target cells) were then added to the effector cells at a 1:50 target–effector ratio. Cells were centrifuged for 3 minutes at 120xg to ensure cell-cell contact and incubated at 37°C, 5% CO2 for 2 hours. Cells were then resuspended in propidium iodide staining solution and incubated at room temperature for 5 minutes. A total of 10,000 target cell events were acquired on a BD Fortessa flow cytometer, and the data was analyzed by FACSDiva or Flowjo.
(§4) We used EC80 stimulation conditions for evaluating the impact of compounds in assays with titrable stimulants. To account for donor-to-donor variability in PBMCs, we used donors that whose EC80 values were within a 3-fold range determined by dose-response experiments with the stimulants. For the NK cell killing assay, we used the conditions and donors that gave the best assay window (i.e., 1:50 target:effector ratio). For the T cell stimulation assay, we performed a dose-titration of αCD3 and αCD28 to determine the stimulation conditions used in this assay. […] Every assay plate contained samples that would elicit a minimal response (no stimulant), maximal response (stimulant with no compounds), compound dose-response (stimulant with compounds) and positive control (stimulant with compound that is known to inhibit the assay). We evaluated the impact of small molecule inhibitors in 8–10 different doses for every PBMC sample in every assay. The values obtained from multiple PBMC donors were compiled together to calculate the inhibitory concentrations of the compounds in a given assay.
(§5) Each assay contained samples that would elicit a minimal and a maximal response, which defined the assay window.
The test system of assay [2] is ROS production by neutrophils in human whole blood. The experiment in a line: Phagocyte oxidative burst (Phagoburst), neutrophil ROS production in whole blood. The class given is cell-based. The settings on record: for IC50: 10 min, sheet 'IC50 values', whole blood, corrected for plasma protein binding, unit inferred, Assay control = DPI, read-out: PB_Neut IC50. The procedure:
(§1) Phagocytic oxidative burst was assessed in whole blood samples using the Phagoburst kit (Orpegen Biopharma, #10–0200). The assay was modified to accommodate a 96 well format. Briefly, 50 μL human whole blood was mixed well with compounds (0.1% final DMSO concentration) and incubated for 30 minutes at 37°C, 5% CO2. Then, samples were incubated on ice for 5 minutes, followed by the addition of 10uL of reagent B (opsonized bacteria). Samples were then mixed well and incubated for 10 minutes in a 37°C water bath. Next, 10μL of reagent E (substrate solution) was added to the samples, mixed well and incubated for an additional 10 minutes in the 37°C water bath. Then, 150uL of reagent F (lysis solution) was added to all wells, mixed well and incubated for 20 minutes at room temperature. Samples were washed twice with reagent A and incubated with 90μL of reagent G (DNA staining solution) for 10 minutes, on ice and protected from light. The samples were analyzed in a BD Fortessa flow cytometer. Cells were gated based on Forward and Side scatter properties and high content DNA. A total of 10,000 cell events (high content DNA) were collected, analyzed using FACSDiva or Flowjo and the oxidative burst was measured by the geometric mean fluorescence intensity (GMFI) of the ROS detection dye in the assay (Figure C in S2 Fig).
(§2) Compounds were spiked at 1 μM in plasma. […] Following centrifugation, samples were analyzed using LC-MS/MS. […] A similar methodology was followed for media binding.

In assay [3] the test system is TLR7. The experiment in a line: TLR7 response: TLR7 agonist induced IL-6 production in PBMCs. The settings on record: for TLR7 Max inhibition: sheet 'TLR7', % maximal inhibition = 'top' of curve fit.
Method: (§6) To evaluate TLR3 responses, frozen PBMCs were thawed in culture medium. A total of 2x10^5 PBMCs were seeded per well in a 96-well tissue culture plate for the assay. One hour following incubation with compounds at 37°C, 5% CO2, the PBMCs were treated with a PBMC donor-specific EC80 concentration of the high molecular weight Poly I:C (TLR3 ligand, Invivogen, San Diego, CA) or appropriate controls, and were allowed to incubate at 37°C, 5% CO2 for 24 hours. Twenty four hours following incubation, 120μl of the cell culture supernatant was removed from the cell culture plates and frozen at -80°C until further analysis. To evaluate TLR7 and TLR9 responses, PBMCs were thawed in culture medium, reconstituted to a concentration of 3x10^6 cells/ml, dispensed into ultra-low attachment flasks and incubated at 37°C, 5% CO2 for 24h with continuous rocking. The PBMCs were harvested from the flask, seeded at a density of 2x10^5 PBMCs/well in compound-dispensed assay plates and allowed to incubate at 37°C, 5% CO2 for 24 hours. One hour following incubation with compounds at 37°C, 5% CO2, the PBMCs were treated with a PBMC donor-specific EC80 concentration of high molecular weight CL264 (TL7 ligand, Invivogen, San Diego, CA) or ODN 2395 (TLR9 ligand, Invivogen, San Diego, CA), or appropriate controls, and were allowed to incubate at 37°C, 5% CO2 for 24 hours. Twenty four hours following incubation, 120μl of the cell culture supernatant was removed from the cell culture plates and frozen at -80°C until further analysis. The cell culture supernatants were analyzed for IP-10 or IL-6 levels using MSD kits (Meso Scale Discovery, Rockville, MD) according to manufacturer’s protocols.
(§7) The stimulant was the chemical agent that was used to elicit the response in the assay (i.e., TLR ligands in the TLR assay). We used EC80 stimulation conditions for evaluating the impact of compounds in assays with titrable stimulants. To account for donor-to-donor variability in PBMCs, we used donors that whose EC80 values were within a 3-fold range determined by dose-response experiments with the stimulants.
The subject of assay [4] is IL-2 production by T cells in human PBMCs. The experiment in a line: T cell activation: IL-2 production in anti-CD3 + anti-CD28 stimulated PBMCs (MSD, 24 h). To be noted: for impact on IL-2 production: PBMC, anti-CD3 + anti-CD28, 24 h; for Tcell_IL2 Max inhibition: sheet 'Tcell_IL2', % maximal inhibition = 'top' of curve fit.
Method: (§8) Peripheral blood mononuclear cells in culture media were pre-treated with compounds (0.1% final DMSO concentration) for 45 minutes at 37°C, 5% CO2 and then transferred into anti-CD3 (1 μg/mL, OKT3, eBioscience, San Diego, CA) coated plate containing soluble anti-CD28 (1 μg/mL, Fitzgerald, Acton, MA). Twenty four hours after stimulation, an aliquot of cell culture supernatant was collected and evaluated for IL-2 production (MesoScale Discovery, Rockville, MD) according to manufacturer’s instructions. The remaining culture was allowed to continue incubation for an additional 48 hours. To evaluate proliferation, Click-iT EdU Alexa Flour 647 Assay Kit (Invitrogen, Carlsbad, CA) was used according to manufacturer’s instructions, and proliferation was evaluated at 72 hours following stimulation. The cells were stained with flourochrome conjugated antibodies against CD3, CD4 and CD8 and analyzed in a BD Fortessa flow cytometer by acquiring 8–10,000 events. The data was analyzed by FACSDiva or FlowJo and reported as the percentage of EdU^+CD3^+CD4^+ and EdU^+CD3^+CD8^+ lymphocytes (Figure A in S2 Fig).
(§9) The stimulant was the chemical agent that was used to elicit the response in the assay (i.e., TLR ligands in the TLR assay). We used EC80 stimulation conditions for evaluating the impact of compounds in assays with titrable stimulants. To account for donor-to-donor variability in PBMCs, we used donors that whose EC80 values were within a 3-fold range determined by dose-response experiments with the stimulants. For the NK cell killing assay, we used the conditions and donors that gave the best assay window (i.e., 1:50 target:effector ratio). For the T cell stimulation assay, we performed a dose-titration of αCD3 and αCD28 to determine the stimulation conditions used in this assay. For the phagocyte oxidative burst assay, since we could not screen human whole blood for selecting best responders, we followed the manufacturer’s protocol on 8–10 different human whole blood samples. Every assay plate contained samples that would elicit a minimal response (no stimulant), maximal response (stimulant with no compounds), compound dose-response (stimulant with compounds) and positive control (stimulant with compound that is known to inhibit the assay). We evaluated the impact of small molecule inhibitors in 8–10 different doses for every PBMC sample in every assay. The values obtained from multiple PBMC donors were compiled together to calculate the inhibitory concentrations of the compounds in a given assay.
as §5
The test system of assay [5] is CD4+ T cell proliferation in human PBMCs. The experiment in a line: CD4+ T cell proliferation in anti-CD3 + anti-CD28 stimulated PBMCs (EdU flow cytometry, 72 h). To be noted: for impact on CD4+ T cell proliferation: PBMC, anti-CD3 + anti-CD28, 72 h.
Method: as §8, §9, §5
Assay [6] relates to ROS production by monocytes in human whole blood. The experiment in a line: Phagocyte oxidative burst (Phagoburst), monocyte ROS production in whole blood. The class given is cell-based. The procedure: as §1, §2
The subject of assay [7] is CD8+ T cell proliferation in human PBMCs. As to the kind of experiment: CD8+ T cell proliferation in anti-CD3 + anti-CD28 stimulated PBMCs (EdU flow cytometry, 72 h). To be noted: for impact on CD8+ T cell proliferation: PBMC, anti-CD3 + anti-CD28, 72 h. Background: Flow cytometry measures light scatter and fluorescence of single cells or particles in a stream.
Method: as §8, §9, §5
The test system of assay [8] is TLR9.
Method: as §6, §7
The test system of assay [9] is gene expression of stimulated human PBMCs. The experiment in a line: Nanostring mRNA profiling in the T cell stimulation assay (anti-CD3 + anti-CD28 PBMCs). The format is cell-based. The settings on record: for impact on gene expression profile of stimulated PBMCs: 24 h after anti-CD3 and anti-CD28 stimulation, n = 3 donors. The procedure:
Cell pellets from experiments were lysed in RLT buffer and prepared according to standard protocol recommended by NanoString Technologies. Briefly, lysates were co-incubated with capture and reporter probes (NanoString Technologies Immunology v2 Codeset) in a thermal cycler set at 65°C for 24 hours. Samples were processed and analyzed with a Generation 2 nCounter. Counts from samples were normalized using housekeeping genes scored on the Nanostring platform. Samples with counts less than 20 were excluded from further analysis. The Matlab function ttest2 was used to determine p-values for log2 fold changes, and the function agglomerative was used to perform clustering.

Assay [10] deals with IL-2 production by T cells in human PBMCs.
Method: as §8, §9, §5
The subject of assay [11] is TLR3.
Method: as §6, §7
Assay [12] deals with TLR9. The experiment in a line: TLR9 response: ODN 2395 induced IL-6 production in PBMCs.
Method: as §6, §7
The subject of assay [13] is NK cell mediated killing of K562 cells.
Method: as §3, §4, §5
Assay [14] has as its system TLR7.
Method: as §6, §7
The subject of assay [15] is CD8+ T cell proliferation in human PBMCs.
Method: as §8, §9, §5
Assay [16] concerns CD4+ T cell proliferation in human PBMCs.
Method: as §8, §9, §5
For assay [17], the system named is TLR3. The experiment in a line: TLR3 response: Poly I:C induced IP-10 production in PBMCs.
Method: as §6, §7
Where [18] appears, read: human whole blood, opsonized bacteria.

With `C/C1=C/C(=O)O[C@@H]2C[C@@H](CC[C@H](C)/C=C\C=C\CC1)O[C@@](O)([C@@H]1CSC(=O)N1)C2` [Latrunculin A, latrunculin A], the “effect on NK cell killing activity” value in [1] was “completely inhibited”.

The term IC50 denotes the concentration that inhibits the measured activity by half. `CO[C@H]1C[C@@H]2CC[C@@H](C)[C@@](O)(O2)C(=O)C(=O)N2CCCC[C@H]2C(=O)O[C@H]([C@H](C)C[C@@H]2CC[C@@H](O)[C@H](OC)C2)CC(=O)[C@H](C)/C=C(\C)[C@@H](O)[C@@H](OC)C(=O)[C@H](C)C[C@H](C)/C=C/C=C/C=C/1C` [Rapamycin, rapamycin]: the concentration for half-maximal inhibition (IC50) was 601 nM in assay [2] (Homo sapiens, Neutrophil, opsonized bacteria) and 128 nM in [6] (Homo sapiens, Monocyte, 10 min, sheet 'IC50 values', whole blood, opsonized bacteria, 10 min, corrected for plasma protein binding, unit inferred, Assay control = DPI, read-out: PB_Mono IC50). In addition, the “reduction / maximal inhibition of neutrophil ROS production” value in [2] (setting [18]) is 20–40%. In addition, the “PB_Neut Max inhibition” value in [2] (sheet 'PB_Neut', % maximal inhibition = 'top' of curve fit) was 36.53. The “TLR7 Max inhibition” value in the assay with TLR7 [3] turned out to be 72.11. Besides, the “impact on IL-2 production” value in assay [4] is given as “did not have an impact”. In addition, the “impact on CD4+ T cell proliferation” value in assay [5] is “did not have an impact”. Also, the “reduction / maximal inhibition of monocyte ROS production” value in [6] (setting [18]) is 20–40%. Also, the “PB_Mono Max inhibition” value in [6] (sheet 'PB_Mono', % maximal inhibition = 'top' of curve fit) stood at 13.41. Also, the “impact on CD8+ T cell proliferation” value in assay [7] is “did not have an impact”.

As to `COc1c(C)c2c(c(O)c1C/C=C(\C)CCC(=O)OCCN1CCOCC1)C(=O)OC2` [Mycophenolate Mofetil, mycophenolate mofetil], the IC50 in the assay with TLR9 [8] was 2170 nM and 3060 nM. Besides, in [9] (1μM, 24 h), the “IL-2 mRNA expression” value is listed as “partially reduced”. In addition, the “impact on gene expression profile of stimulated PBMCs” value (“impact on gene expression profile” below) in [9] (1μM) is listed as “minimal impact on restoring the gene expression profile”. In addition, in [4], the “impact on IL-2 production” value is given as “inhibited” and the “Tcell_IL2 Max inhibition” value came out at 49.64. In addition, the “impact on CD4+ T cell proliferation” value in assay [5] is “inhibited”. In assay [7], the “impact on CD8+ T cell proliferation” value is given as “inhibited”.

In the case of `C[C@]12C=CC(=O)C=C1CC[C@@H]1[C@@H]2[C@@H](O)C[C@@]2(C)[C@H]1CC[C@]2(O)C(=O)CO` [Prednisolone, prednisolone], the IC50 in assay [10] was 75.5 nM; with TLR3 [11], 921 nM and 990 nM; in the assay with TLR9 [8], 33.2 nM and 35.7 nM; in assay [13] it was 21.5 µM; in the assay on TLR7 [14] it was 31.7 nM and 34.1 nM. Besides, the “TLR7 Max inhibition” value in the assay on TLR7 [3] is 93.77. Besides, the “IL-2 mRNA expression” value in assay [9] (1μM, 24 h) is reported as “partially reduced”. Further, the “IL-4 mRNA expression” value in [9] (1μM, 24 h) was “reduced”. Also, in assay [9] (1μM, 24 h), the “IL-13 mRNA expression” value is “reduced”. Moreover, the “impact on gene expression profile” value in assay [9] (1μM) is “modified the gene expression profile of stimulated samples similar to that of unstimulated cells”. The “IL-2 mRNA expression, time and dose course” value in assay [9] (three concentrations, 3h, 6h and 24h following stimulation) is “impacted in a time- and dose-dependent manner”. In assay [4], the “impact on IL-2 production” value is on record as “inhibited only IL-2 production”. Also, the “Tcell_IL2 Max inhibition” value in assay [4] is reported as 71.87. Besides, in the assay on TLR9 [12], the “effect on TLR9 response, ODN 2395 induced IL-6” value was “dose-dependent inhibition; also recorded: potent in inhibiting TLR9 responses”. Also, in [5], the “impact on CD4+ T cell proliferation” value was “did not have an impact”. Also, the “impact on CD8+ T cell proliferation” value in assay [7] is listed as “did not have an impact”.

For the molecule `Cc1oncc1C(=O)Nc1ccc(C(F)(F)F)cc1` [Leflunomide, leflunomide], the IC50 is 25.4 nM and 25.9 nM in the assay with TLR9 [8]; 48.1 µM in assay [13].

`CC(C)(C)c1nc2c3cc[nH]c(=O)c3c3cc(F)ccc3c2[nH]1` [JAK inhibitor 1]: the IC50 in the assay with TLR3 [11] is 61.1 nM; in the assay with TLR9 [8], 26 nM; in assay [2] (opsonized bacteria), 354 nM; in assay [13] it was 65.9 µM; in the assay with TLR7 [14] it was 547 nM.

As for `CN(Cc1cnc2nc(N)nc(N)c2n1)c1ccc(C(=O)N[C@@H](CCC(=O)O)C(=O)O)cc1` [Methotrexate], the results for the 50% inhibitory concentration (IC50) in [10], in [15] and in assay [16] were 4960 nM, 10.5 nM and 5.88 nM, respectively. The “impact on gene expression profile” value in assay [9] (1μM) is “minimal impact on restoring the gene expression profile”. For the same molecule, the “impact on IL-2 production” value in [4] was “marginal but variable impact”. Further, in assay [4], the “Tcell_IL2 Max inhibition” value came out at 27.8. Also, in assay [5], the “maximal inhibition of CD4+ T cell proliferation” value is reported as “around 30%”. Also, in assay [7], the “maximal inhibition of CD8+ T cell proliferation” value is “around 30%”.

`c1ccc([I+]c2ccccc2)cc1` [diphenyliodonium chloride]: the “effect on neutrophil ROS production” value in assay [2] (setting [18]) was “completely inhibit”. Moreover, the “effect on monocyte ROS production” value in assay [6] (setting [18]) is reported as “completely inhibit”.

As for `Cc1ccc(S(=O)(=O)/C=C/C#N)cc1` [BAY-11, BAY 11–7082], the “effect on TLR3 response, Poly (I:C) induced IP-10” value in the assay with TLR3 [17] is reported as “fully inhibited the response”. In the assay with TLR7 [3], the “effect on TLR7 response, IL-6 production” value was “fully inhibited this response”. Further, in the assay on TLR9 [12], the “effect on TLR9 response, ODN 2395 induced IL-6” value is on record as “fully inhibited this response”.
